Our source for the EC50, IC50 and AC50 values is ChEMBL document CHEMBL1201862, “PubChem BioAssay data set” (2004).

Calls of active or inactive are those of the source.

Experiment [1] can be described thus: cells. The experiment is classed as functional, cell-based.
The nature of experiment [2]: cells. The experiment is classed as functional, cell-based. This is another data set of the same source.
The target in experiment [3] is T1, Trace amine-associated receptor 1 (Homo sapiens, UniProt Q96RJ0).
T1 sequence (Q96RJ0 whole entry): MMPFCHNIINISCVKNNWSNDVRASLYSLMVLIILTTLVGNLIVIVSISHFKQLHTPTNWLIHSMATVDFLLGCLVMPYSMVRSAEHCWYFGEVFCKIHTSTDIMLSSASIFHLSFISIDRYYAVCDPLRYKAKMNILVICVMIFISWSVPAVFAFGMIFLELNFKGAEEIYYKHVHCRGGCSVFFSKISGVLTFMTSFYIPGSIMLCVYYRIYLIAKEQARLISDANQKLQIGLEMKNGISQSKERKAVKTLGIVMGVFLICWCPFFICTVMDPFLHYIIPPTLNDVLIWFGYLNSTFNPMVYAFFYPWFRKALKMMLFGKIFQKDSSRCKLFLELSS
The experiment in a line: Fluorescence-based cell-based high throughput dose response assay to identify agonists of the human trace amine associated receptor 1 (TAAR1). The experiment is classed as functional.

Experiment [4] addresses T1, Trace amine-associated receptor 1. The experiment in a line: Counterscreen for agonists of the human trace amine associated receptor 1 (hTAAR1): Fluorescence-based cell-based high throughput dose response assay to identify hTAAR1 agonist that also desensitize TAAR1 receptor response. It counts as functional. For orientation: A counterscreen serves to expose hits that act by an unwanted route or on another target.

In experiment [5] the target is Histone-lysine N-methyltransferase NSD2 (Homo sapiens, UniProt O96028). The experiment is classed as biochemical.
Chain of Histone-lysine N-methyltransferase NSD2 (O96028 whole entry): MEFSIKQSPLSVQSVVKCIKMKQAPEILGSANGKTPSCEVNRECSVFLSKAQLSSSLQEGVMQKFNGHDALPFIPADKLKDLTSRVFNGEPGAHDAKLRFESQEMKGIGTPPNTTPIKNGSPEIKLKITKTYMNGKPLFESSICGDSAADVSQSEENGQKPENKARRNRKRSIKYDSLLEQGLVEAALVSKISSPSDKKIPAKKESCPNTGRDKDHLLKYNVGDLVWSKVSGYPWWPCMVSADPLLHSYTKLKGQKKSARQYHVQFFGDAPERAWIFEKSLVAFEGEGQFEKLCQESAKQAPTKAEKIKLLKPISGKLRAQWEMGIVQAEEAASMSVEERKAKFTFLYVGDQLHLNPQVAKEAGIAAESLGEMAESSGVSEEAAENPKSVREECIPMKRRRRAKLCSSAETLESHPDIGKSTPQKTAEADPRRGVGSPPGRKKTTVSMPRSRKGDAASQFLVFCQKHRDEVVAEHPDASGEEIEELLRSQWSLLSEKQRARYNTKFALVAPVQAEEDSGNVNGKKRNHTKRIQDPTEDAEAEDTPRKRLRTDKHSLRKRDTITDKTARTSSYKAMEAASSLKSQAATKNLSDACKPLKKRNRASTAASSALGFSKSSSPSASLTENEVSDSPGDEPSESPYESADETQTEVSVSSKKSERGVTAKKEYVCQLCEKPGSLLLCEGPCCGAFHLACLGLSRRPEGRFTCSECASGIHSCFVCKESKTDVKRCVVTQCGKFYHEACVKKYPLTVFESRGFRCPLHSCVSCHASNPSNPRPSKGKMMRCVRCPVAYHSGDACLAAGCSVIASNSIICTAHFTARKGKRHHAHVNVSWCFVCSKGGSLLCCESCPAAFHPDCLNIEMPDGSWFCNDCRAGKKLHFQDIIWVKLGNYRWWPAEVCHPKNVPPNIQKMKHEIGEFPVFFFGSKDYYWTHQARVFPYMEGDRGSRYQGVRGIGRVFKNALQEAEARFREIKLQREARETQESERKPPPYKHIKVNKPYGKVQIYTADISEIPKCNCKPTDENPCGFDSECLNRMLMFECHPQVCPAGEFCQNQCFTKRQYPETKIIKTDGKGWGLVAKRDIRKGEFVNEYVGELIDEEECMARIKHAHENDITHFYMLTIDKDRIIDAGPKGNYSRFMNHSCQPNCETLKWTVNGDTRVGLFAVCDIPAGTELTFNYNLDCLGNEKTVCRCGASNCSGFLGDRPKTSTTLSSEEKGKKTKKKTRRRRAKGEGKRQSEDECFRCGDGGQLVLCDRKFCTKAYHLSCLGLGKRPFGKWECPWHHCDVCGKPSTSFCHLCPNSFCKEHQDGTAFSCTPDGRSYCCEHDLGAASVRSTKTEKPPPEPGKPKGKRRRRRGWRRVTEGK
A short description of experiment [6]: HepG2 cell cytotoxicity, dose response, cytotoxicity control, plate reader, cherry-pick, antagonist series (AID 743416). The experiment is classed as functional, cell-based.
The nature of experiment [7]: MC4R antagonists, dose response, counter-screen for LGR2 antagonist project, cell-based, plate reader, cherry pick (AID 743444).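 Also: transfected HEK 293 cells stimulated with alpha-MSH peptide; potency of inhibitors of the alpha-MSH evoked signal.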 The experiment is classed as functional.
The nature of experiment [8]: HEK293 cell cytotoxicity, dose response, cytotoxicity control, plate reader, cherry-picked samples (AID 743446). It counts as functional, cell-based.
A short description of experiment [9]: LGR2 antagonists, dose response, cell-based, HEK293, CRE-luciferase reporter, cherry pick, set 2 (AID 743343).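 Also: transfected cells were stimulated with diluted bursicon conditioned medium after compound addition.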 The experiment is classed as functional.
For experiment [10], the target named is SWI/SNF-related matrix-associated actin-dependent regulator of chromatin subfamily A member 2 (Homo sapiens, UniProt P51531). The experiment in a line: Luminescence-based cell-based high throughput dose response assay to identify activators of the function of SWI/SNF related, matrix associated, actin dependent regulator of chromatin, subfamily a, member 2 (SMARCA2, BRM). The experiment is classed as functional.
Chain of SWI/SNF-related matrix-associated actin-dependent regulator of chromatin subfamily A member 2 (P51531 whole entry): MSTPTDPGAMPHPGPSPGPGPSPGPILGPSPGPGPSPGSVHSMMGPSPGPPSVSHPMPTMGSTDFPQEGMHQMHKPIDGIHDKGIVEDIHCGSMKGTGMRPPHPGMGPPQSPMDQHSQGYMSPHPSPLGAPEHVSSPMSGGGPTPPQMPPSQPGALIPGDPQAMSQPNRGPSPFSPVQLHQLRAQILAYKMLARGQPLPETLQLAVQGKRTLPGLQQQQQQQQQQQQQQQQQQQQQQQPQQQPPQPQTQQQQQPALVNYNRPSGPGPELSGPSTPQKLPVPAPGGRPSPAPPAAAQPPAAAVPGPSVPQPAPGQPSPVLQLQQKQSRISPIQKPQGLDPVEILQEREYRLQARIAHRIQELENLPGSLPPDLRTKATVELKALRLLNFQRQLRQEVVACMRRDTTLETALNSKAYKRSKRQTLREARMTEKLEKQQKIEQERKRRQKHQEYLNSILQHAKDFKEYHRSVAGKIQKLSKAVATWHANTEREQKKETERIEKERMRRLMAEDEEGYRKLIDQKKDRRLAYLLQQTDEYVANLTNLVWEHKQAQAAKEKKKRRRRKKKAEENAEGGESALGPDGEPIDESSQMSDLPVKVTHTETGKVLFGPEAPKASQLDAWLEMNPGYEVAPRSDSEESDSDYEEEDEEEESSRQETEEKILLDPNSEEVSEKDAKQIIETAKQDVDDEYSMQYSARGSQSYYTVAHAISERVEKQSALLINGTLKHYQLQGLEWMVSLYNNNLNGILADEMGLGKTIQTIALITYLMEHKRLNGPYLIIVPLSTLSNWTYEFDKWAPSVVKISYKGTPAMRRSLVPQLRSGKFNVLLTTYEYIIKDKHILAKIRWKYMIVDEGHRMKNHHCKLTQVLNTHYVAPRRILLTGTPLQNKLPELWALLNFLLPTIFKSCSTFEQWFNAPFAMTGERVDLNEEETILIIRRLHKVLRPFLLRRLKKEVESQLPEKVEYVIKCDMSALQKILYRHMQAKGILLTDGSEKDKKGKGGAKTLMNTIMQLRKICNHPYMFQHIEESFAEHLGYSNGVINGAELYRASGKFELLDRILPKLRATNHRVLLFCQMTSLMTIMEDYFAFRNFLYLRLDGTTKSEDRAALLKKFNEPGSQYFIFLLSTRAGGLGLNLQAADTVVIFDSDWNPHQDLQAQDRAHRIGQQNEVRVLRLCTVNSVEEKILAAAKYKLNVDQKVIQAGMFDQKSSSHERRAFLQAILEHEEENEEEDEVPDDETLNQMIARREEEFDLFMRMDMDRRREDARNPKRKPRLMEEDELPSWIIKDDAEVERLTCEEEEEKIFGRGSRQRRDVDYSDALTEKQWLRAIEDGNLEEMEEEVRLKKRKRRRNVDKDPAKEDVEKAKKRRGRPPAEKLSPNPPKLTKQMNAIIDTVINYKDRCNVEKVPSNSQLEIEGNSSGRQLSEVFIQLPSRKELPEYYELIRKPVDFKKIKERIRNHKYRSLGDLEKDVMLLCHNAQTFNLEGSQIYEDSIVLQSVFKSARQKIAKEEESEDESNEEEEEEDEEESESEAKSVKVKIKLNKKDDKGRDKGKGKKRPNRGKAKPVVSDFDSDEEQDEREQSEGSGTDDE

The target of experiment [11] is T2, Sentrin-specific protease 7 (Homo sapiens, UniProt Q9BQF6).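 Also: Luminescence-based dose-response confirmation of ultra-high-throughput screening hits, measuring inhibition of SENP7.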
T2 sequence (Q9BQF6 whole entry): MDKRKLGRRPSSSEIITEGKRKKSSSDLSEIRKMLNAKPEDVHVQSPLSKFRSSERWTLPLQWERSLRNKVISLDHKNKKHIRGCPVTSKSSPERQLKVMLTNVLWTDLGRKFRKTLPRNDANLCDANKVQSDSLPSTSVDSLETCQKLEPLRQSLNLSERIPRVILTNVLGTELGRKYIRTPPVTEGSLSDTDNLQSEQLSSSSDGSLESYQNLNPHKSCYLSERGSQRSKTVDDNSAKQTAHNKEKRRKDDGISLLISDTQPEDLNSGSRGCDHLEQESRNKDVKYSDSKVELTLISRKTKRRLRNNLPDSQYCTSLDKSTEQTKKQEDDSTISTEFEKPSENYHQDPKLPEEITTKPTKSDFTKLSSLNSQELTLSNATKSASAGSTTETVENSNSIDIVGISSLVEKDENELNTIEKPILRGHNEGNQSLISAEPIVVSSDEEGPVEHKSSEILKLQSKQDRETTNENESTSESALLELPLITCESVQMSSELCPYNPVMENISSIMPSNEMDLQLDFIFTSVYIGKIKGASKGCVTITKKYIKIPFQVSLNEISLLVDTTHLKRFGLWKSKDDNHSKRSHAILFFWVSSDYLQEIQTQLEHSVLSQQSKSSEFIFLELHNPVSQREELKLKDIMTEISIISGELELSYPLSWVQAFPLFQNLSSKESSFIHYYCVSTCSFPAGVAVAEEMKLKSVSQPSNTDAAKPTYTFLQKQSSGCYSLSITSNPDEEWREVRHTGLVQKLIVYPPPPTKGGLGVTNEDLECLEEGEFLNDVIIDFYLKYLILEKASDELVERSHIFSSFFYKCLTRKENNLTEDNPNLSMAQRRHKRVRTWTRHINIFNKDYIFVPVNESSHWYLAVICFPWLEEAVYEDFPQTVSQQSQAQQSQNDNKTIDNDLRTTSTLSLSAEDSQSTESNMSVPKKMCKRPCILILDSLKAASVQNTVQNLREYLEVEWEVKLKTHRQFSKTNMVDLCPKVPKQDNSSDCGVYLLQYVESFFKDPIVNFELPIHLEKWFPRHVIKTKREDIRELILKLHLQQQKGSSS
The experiment is classed as functional.

The target of the next experiment is T3, Caspase-3 (Homo sapiens, UniProt P42574).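 Also: Dose-response selectivity test against caspase-3 for candidate inhibitors of sentrin-specific proteases (SENPs).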
T3 sequence (P42574 whole entry): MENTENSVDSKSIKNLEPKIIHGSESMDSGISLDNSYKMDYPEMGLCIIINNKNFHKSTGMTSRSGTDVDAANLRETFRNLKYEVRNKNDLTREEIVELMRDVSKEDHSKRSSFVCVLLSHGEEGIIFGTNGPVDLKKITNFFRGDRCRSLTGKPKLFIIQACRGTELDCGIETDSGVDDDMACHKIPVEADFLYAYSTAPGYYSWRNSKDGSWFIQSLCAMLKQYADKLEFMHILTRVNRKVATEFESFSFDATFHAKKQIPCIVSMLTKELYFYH
It counts as functional.

A short description of experiment [12]: Counterscreen for activators of the function of SWI/SNF related, matrix associated, actin dependent regulator of chromatin, subfamily a, member 2 (SMARCA2, BRM): Luminescence-based cell-based high throughput dose response assay to identify non-selective compounds using the VP16 reporter assay. The experiment is classed as functional.
For experiment [13], the target named is T4, Sentrin-specific protease 8 (Homo sapiens, UniProt Q96LD8).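 Also: luminescence read-out of SENP8 inhibition, dose-response confirmation following an ultra-high-throughput screen.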
T4 sequence (Q96LD8 whole entry): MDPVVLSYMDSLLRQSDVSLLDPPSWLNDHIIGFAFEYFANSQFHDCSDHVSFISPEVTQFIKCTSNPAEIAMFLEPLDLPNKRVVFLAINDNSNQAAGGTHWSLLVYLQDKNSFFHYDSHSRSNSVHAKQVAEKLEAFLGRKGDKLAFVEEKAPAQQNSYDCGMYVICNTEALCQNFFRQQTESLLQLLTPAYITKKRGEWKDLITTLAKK
It counts as functional.

In experiment [14] the target is T5, Sentrin-specific protease 6 (Homo sapiens, UniProt Q9GZR1).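 Also: Luminescence-based dose-response confirmatory assay of SENP6 inhibition, following up an ultra-high-throughput screen.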
T5 sequence (Q9GZR1 whole entry): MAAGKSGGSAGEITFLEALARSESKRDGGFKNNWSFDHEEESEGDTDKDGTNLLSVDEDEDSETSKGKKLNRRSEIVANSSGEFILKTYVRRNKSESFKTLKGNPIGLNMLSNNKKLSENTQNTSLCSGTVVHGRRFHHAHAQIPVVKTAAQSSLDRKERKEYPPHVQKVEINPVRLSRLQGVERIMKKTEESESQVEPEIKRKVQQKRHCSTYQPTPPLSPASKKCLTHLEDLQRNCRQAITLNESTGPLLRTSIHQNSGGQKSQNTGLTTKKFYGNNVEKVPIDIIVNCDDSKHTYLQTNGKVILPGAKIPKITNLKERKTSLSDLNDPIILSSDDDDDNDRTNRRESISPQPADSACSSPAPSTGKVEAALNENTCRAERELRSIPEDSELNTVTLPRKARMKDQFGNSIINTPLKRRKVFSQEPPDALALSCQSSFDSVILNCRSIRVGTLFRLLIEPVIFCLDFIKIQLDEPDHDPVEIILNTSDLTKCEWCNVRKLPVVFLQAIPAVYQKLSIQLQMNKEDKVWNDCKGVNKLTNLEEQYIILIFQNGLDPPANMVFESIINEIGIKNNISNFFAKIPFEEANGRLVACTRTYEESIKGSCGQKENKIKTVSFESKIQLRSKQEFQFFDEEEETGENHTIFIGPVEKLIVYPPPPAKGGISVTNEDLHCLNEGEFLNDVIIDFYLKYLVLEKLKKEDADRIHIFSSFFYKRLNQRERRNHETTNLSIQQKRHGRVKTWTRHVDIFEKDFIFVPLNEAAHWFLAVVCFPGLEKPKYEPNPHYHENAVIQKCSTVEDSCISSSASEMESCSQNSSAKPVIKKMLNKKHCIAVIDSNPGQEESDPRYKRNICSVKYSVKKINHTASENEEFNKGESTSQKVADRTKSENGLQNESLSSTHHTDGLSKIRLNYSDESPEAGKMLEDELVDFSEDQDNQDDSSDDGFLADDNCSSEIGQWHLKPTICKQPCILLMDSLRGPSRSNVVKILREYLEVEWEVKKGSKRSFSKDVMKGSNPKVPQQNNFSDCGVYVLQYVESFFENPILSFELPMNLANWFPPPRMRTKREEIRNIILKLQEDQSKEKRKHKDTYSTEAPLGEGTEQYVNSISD
The experiment is classed as functional.

The target in the next experiment is Galanin receptor type 3 (Homo sapiens, UniProt O60755). The experiment in a line: Fluorescence-based cell-based primary high throughput dose response assay to identify antagonists of the Galanin Receptor 3 (GalR3). It counts as functional.
Chain of Galanin receptor type 3 (O60755 whole entry): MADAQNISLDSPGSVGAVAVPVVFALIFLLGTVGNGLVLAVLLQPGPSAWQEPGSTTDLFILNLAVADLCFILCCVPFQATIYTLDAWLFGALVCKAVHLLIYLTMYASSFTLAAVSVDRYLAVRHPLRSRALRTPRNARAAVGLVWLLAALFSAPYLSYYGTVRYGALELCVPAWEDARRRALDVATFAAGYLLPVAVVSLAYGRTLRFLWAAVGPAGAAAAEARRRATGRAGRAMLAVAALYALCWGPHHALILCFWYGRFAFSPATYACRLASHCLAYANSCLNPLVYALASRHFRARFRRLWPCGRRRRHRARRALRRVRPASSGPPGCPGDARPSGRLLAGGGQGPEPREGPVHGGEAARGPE
The nature of experiment [15]: cells. It counts as functional, cell-based. As to conditions: HEK-CNG.
A further experiment concerns the target T6, Streptokinase A (Streptococcus pyogenes serotype M1, UniProt P10520).
T6 sequence (P10520 whole entry): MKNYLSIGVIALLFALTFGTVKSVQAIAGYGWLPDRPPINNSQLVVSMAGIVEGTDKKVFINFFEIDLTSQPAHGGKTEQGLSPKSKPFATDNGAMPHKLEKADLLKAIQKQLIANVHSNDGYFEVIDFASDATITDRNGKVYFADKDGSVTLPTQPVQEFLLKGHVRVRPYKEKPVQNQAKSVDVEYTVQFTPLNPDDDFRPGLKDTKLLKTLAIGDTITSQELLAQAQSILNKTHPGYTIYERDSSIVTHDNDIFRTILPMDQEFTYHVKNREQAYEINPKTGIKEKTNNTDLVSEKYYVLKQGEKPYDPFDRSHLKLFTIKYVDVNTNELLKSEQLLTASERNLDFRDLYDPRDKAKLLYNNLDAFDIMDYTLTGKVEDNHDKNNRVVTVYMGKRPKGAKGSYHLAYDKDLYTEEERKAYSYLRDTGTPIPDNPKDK
The experiment in a line: S. pyogenes streptokinase expression inhibitors, potency, dose response, plasminogen activation absorbance, OD405 (AID 1914).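 Also: secreted streptokinase activity via plasminogen activation per viability signal from cell pellet.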 The experiment is classed as functional, Streptococcus pyogenes M1 GAS.

The subject of experiment [16] is Streptococcus sp. 'group A'. The experiment in a line: growth inhibition of control SK(-) GAS strain, dose response, counter-screen for streptokinase expression inhibitor project, luminescence, kanamycin, BacTiterGlo, confirmation (AID 1900). It counts as functional, organism-based.
The next experiment relates to Streptococcus. The experiment in a line: Group A Streptococcus viability loss, dose response, counter-screen for streptokinase expression inhibitor project, luminescence, BacTiterGlo (AID 1915).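 Also: potency for reduction of bacterial viability or growth.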 It counts as functional, organism-based.

For the compound `CC(Cc1ccccc1)NC=O` (centres undefined) [FORMETOREX], the EC50 was > 29.9 µM (inactive) in “cells [1]” and 0.576 µM (active) in experiment [3]. For the same compound, the IC50 in “cells [2]” is > 29.9 µM (inactive); in [4], 2.27 µM (active).
As to `CCCN(CCC)CCCNC(=O)c1ccc(CS(=O)(=O)c2c(Cl)cccc2Cl)o1`, the AC50 in experiment [5] is > 20 µM (inactive).
Turning to `O=C(Nc1nc2ccccc2s1)c1ccc2sc([C@H]3C[C@H](O)[C@@H](CO)O3)nc2c1`, the AC50 in [6] is > 52 µM (inactive); in experiment [7], 18.5 µM (active); in experiment [8] it was > 52 µM (inactive); in experiment [9], 18.2 µM (active).
For the compound `Fc1cccc(F)c1-c1nc(-c2ccc(Cl)cc2)no1`, the EC50 in experiment [10] and in experiment [12] was > 91.2 µM (inactive) in each case. In addition, the half-maximal inhibitory concentration (IC50) in [11] was 3.99 µM (active); on Caspase-3, 25.2 µM (active); in experiment [13] it was 21.8 µM (active); in experiment [14], 5.78 µM (active).
As to `Clc1cccc(CN2CCN(c3ncc(Cc4ccccc4)cn3)CC2)c1Cl`, the IC50 at Galanin receptor type 3 is > 0.369 µM (active). For the same compound, the EC50 in the experiment “cells [15]” was > 29.9 µM (inactive).
Turning to `CCN(CCn1cccn1)C(=O)CC1C(=O)NCCN1CCc1ccccc1` (centres undefined), the EC50 at Streptokinase A is > 150 µM (not active); in [16], > 150 µM (not active); in the experiment “cells [1]”, > 29.9 µM (inactive); in [3] it was 1.31 µM (active); in the experiment on Streptococcus, > 150 µM (not active). Besides, the IC50 in “cells [2]” is > 29.9 µM (inactive); in experiment [4], 2.2 µM (active).

In general, EC50 refers to the concentration needed to bring the measured effect to its halfway point. The IC50 is the concentration needed to halve the response being measured. The term AC50 denotes the midpoint of the concentration-response curve, whichever way the signal moves.
